Results as given in patent EP4806435A1, “DIHYDROCHROMENE-DERIVATIVE-CONTAINING THERAPEUTIC AGENT FOR CANCER” (Sumitomo Pharma Co., Ltd., priority 2023, dated 2025).

Tested on: recurrent malignant glioma classified as WHO grade III or IV
Experiment: Phase 1 clinical trial: preliminary antitumor activity (RANO criteria)
Type: in vivo, human
Description: Each treatment cycle was defined as 28 days, during which safety and treatment response were evaluated. Administration to each subject was continued until unacceptable toxicity occurred, consent was withdrawn, the subject was lost to follow-up, or discontinuation was determined by the investigator and/or the sponsor.

## CC1(C)Oc2cc(Cl)ccc2[C@@H]2OCC3(CCN(CCn4ccnc4)CC3)C[C@H]21 [Compound 1, (4'aR,10'bR)-8'-chloro-1-[2-(1H-imidazol-1-yl)ethyl]-5',5'-dimethyl-4'a,10'b-dihydro-2'H,4'H,5'H-spiro[piperidine-4,3'-pyrano[3,2-c][1]benzopyran] diphosphate]
180 mg QD and 240 mg QD
  stable disease: prolonged stable disease (SD) was observed
360 mg QD and 480 mg daily (240 mg BID)
  discontinuation due to objective disease progression (RANO criteria): most patients discontinued administration of Compound 1 within two months
Dose Escalation Part, as of September 2023
  patients with preliminary antitumor activity (monotherapy): 4 patients
First patient with IDH-mutant WHO Grade III glioma, 20 mg QD
  tumor reduction (enhancing lesions, RANO criteria; reduction from baseline): 22%
Patient with 22% tumor reduction
  time remained on study: 15 months
Patient with 100% tumor reduction, as of September 2023
  time remained on study: 13 months
Patient with 100% tumor reduction, cutoff April 21, 2024
  time remained on study: 20 months
Patient with WHO grade III astrocytoma with IDH mutation, 120 mg, after more than one year of treatment
  response: complete response (CR)
Second patient with IDH-mutant WHO Grade III glioma, 120 mg QD
  tumor reduction (enhancing lesions, RANO criteria; reduction from baseline): 100%
